Source: patent publication US20240384236A1, “3D RECONSTITUTED BONE MARROW NICHE AND USES THEREOF” (The University of Hong Kong, priority 2023, published 2024)
Like-named read-outs stand apart in the source and are kept apart here.

System: primary AML cells
Assay: Sample drug screening: viability of primary AML cells (PrestoBlue) after 24 h drug exposure in nine culture conditions
Settings: for IC50: Homo sapiens; for sensitivity of AML cells to the drug: co-culture with AML MSC-derived niches; for chemosensitivity of primary AML cells towards the drug: co-culture with healthy 3DON

`COc1cccc2c1C(=O)c1c(O)c3c(c(O)c1C2=O)C[C@@](O)(C(C)=O)C[C@@H]3O[C@H]1C[C@H](N)[C@H](O)[C@H](C)O1` [daunorubicin] was tested, and the IC50 (read-out: IC50 daunorubicin, primary AML cells co-cultured with AML 2DMN) was 74 µM, the IC50 (read-out: IC50 daunorubicin, primary AML cells co-cultured with AML 3DMN) was 55.9 µM and the IC50 (read-out: IC50 daunorubicin, primary AML cells co-cultured with AML 3DON) was 43.4 µM. The IC50 (read-out: IC50 daunorubicin, primary AML cells co-cultured with healthy 2DMN) was 0.571 µM, the IC50 (read-out: IC50 daunorubicin, primary AML cells co-cultured with healthy 3DMN) was 3.31 µM and the IC50 (read-out: IC50 daunorubicin, primary AML cells in NC1 (AML medium)) was 0.0486 µM. For the same compound, the IC50 (read-out: IC50 daunorubicin, primary AML cells in NC2 (MSC medium)) was 0.525 µM, the IC50 (read-out: IC50 daunorubicin, primary AML cells in PC (engineered growth factor cocktail medium)) was 34.3 µM and the “sensitivity of AML cells to the drug” value was “less sensitive”. For the same compound, the “chemosensitivity of primary AML cells towards the drug” value was “increase the chemosensitivity”.
With `COc1cccc2c1C(=O)c1c(O)c3c(c(O)c1C2=O)C[C@@](O)(C(=O)CO)C[C@@H]3O[C@H]1C[C@H](N)[C@H](O)[C@H](C)O1` [doxorubicin] the “sensitivity of AML cells to the drug” value was “less sensitive” and the “chemosensitivity of primary AML cells towards the drug” value was “increase the chemosensitivity”.
